Assay results taken from patent US20110105509A1 (Wyeth, LLC, priority 2009, published 2011).

Target: T1, CRTH2 (Homo sapiens, UniProt Q9Y5Y4)
T1 construct: expressed in transfected cells; host or cells: CHO cells
T1 sequence (Q9Y5Y4 1-395): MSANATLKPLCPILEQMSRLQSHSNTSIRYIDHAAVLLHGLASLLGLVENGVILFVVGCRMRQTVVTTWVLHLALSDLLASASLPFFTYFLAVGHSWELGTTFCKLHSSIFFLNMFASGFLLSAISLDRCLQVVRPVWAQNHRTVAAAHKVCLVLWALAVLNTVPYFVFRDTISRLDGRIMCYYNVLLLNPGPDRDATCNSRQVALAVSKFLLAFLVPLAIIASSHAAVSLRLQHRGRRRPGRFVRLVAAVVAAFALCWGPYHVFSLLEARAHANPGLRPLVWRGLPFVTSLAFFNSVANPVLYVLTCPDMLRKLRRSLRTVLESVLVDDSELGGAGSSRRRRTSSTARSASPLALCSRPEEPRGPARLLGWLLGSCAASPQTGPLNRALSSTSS
Assay: FRET based competitive immunoassay (cAMP) in CRTH2 expressing CHO cells
Type: cell-based
Details: CRTH2 expressing CHO cells incubated with forskolin and PGD2; Eu3+ cryptate-labeled anti-cAMP and d2-labeled cAMP
Procedure: FRET Assay: To evaluate potency compounds were tested in a FRET based competitive immunoassay in which CRTH2 expressing CHO cells were incubated in the presence of forskolin and PGD2 along with Eu3+ cryptate-labeled anti-cAMP and d2-labeled cAMP.

Row | IC50 [nM] | SMILES
1 | 2 | Cc1c(-c2nn(CCOc3ccc(Cl)cc3)c(=O)c3ccccc23)c2cc(F)ccc2n1CC(=O)O [Example 210, 2-(3-(3-(2-(4-chlorophenoxy)ethyl)-4-oxo-3,4-dihydrophthalazin-1-yl)-5-fluoro-2-methyl-1H-indol-1-yl)acetic acid]
2 | 22 | Cc1c(-c2ccc(=O)n(Cc3ccccc3C(F)(F)F)n2)c2cc(Cl)ccc2n1CC(=O)O [Example 211, 2-(5-chloro-2-methyl-3-(6-oxo-1-(2-(trifluoromethyl)benzyl)-1,6-dihydro-pyridazin-3-yl)-1H-indol-1-yl)acetic acid]
3 | 33 | Cc1c(-c2ccc(=O)n(Cc3cccc(C(F)(F)F)c3)n2)c2cc(Cl)ccc2n1CC(=O)O [Example 212, 2-(5-chloro-2-methyl-3-(6-oxo-1-(3-(trifluoromethyl)benzyl)-1,6-dihydropyridazin-3-yl)-1H-indol-1-yl)acetic acid]
4 | 19 | Cc1c(-c2ccc(=O)n(Cc3ccc(C(F)(F)F)cc3)n2)c2cc(Cl)ccc2n1CC(=O)O [Example 213, 2-(5-chloro-2-methyl-3-(6-oxo-1-(4-(trifluoromethyl)benzyl)-1,6-dihydropyridazin-3-yl)-1H-indol-1-yl)acetic acid]
5 | 351 | Cc1c(-c2ccc(=O)n(Cc3ccccc3)n2)c2cc(S(C)(=O)=O)ccc2n1CC(=O)O [Example 214, 2-(3-(1-benzyl-6-oxo-1,6-dihydropyridazin-3-yl)-2-methyl-5-(methylsulfonyl)-1H-indol-1-yl)acetic acid]
6 | 27 | Cc1c(-c2nn(Cc3ccccc3)c(=O)c3ccccc23)c2cc(S(C)(=O)=O)ccc2n1CC(=O)O [Example 215, 2-(3-(3-benzyl-4-oxo-3,4-dihydrophthalazin-1-yl)-2-methyl-5-(methylsulfonyl)-1H-indol-1-yl)acetic acid]
7 | 14 | Cc1c(-c2ccc(=O)n(Cc3ccccc3C(F)(F)F)n2)c2cc(F)ccc2n1CC(=O)O [Example 216, 2-(5-fluoro-2-methyl-3-(6-oxo-1-(2-(trifluoromethyl)benzyl)-1,6-dihydropyridazin-3-yl)-1H-indol-1-yl)acetic acid]
8 | 24 | Cc1c(-c2ccc(=O)n(Cc3cccc(C(F)(F)F)c3)n2)c2cc(F)ccc2n1CC(=O)O [Example 218, 2-(5-fluoro-2-methyl-3-(6-oxo-1-(3-(trifluoromethyl)benzyl)-1,6-dihydropyridazin-3-yl)-1H-indol-1-yl)acetic acid]
9 | 30 | Cc1c(-c2ccc(=O)n(Cc3ccccc3)n2)c2cc(Br)ccc2n1CC(=O)O [Example 219, 2-(3-(1-benzyl-6-oxo-1,6-dihydropyridazin-3-yl)-5-bromo-2-methyl-1H-indol-1-yl)-acetic acid]
10 | 18 | Cc1c(-c2nn(CC(C)(C)Oc3ccccc3)c(=O)c3ccccc23)c2cc(F)ccc2n1CC(=O)O [Example 220, 2-(5-fluoro-2-methyl-3-(3-(2-methyl-2-phenoxypropyl)-4-oxo-3,4-dihydrophthalazin-1-yl)-1H-indol-1-yl)acetic acid]
11 | 6 | Cc1c(-c2nn(CCOc3ccccc3)c(=O)c3ccccc23)c2cc(Cl)ccc2n1CC(=O)O [Example 221, 2-(5-chloro-2-methyl-3-(4-oxo-3-(2-phenoxyethyl)-3,4-dihydrophthalazin-1-yl)-1H-indol-1-yl)acetic acid]
12 | 1 | Cc1c(-c2nn(CCOc3ccccc3)c(=O)c3ccccc23)c2cc(F)ccc2n1CC(=O)O [Example 222, 2-(5-fluoro-2-methyl-3-(4-oxo-3-(2-phenoxyethyl)-3,4-dihydrophthalazin-1-yl)-1H-indol-1-yl)acetic acid]
13 | 6 | Cc1c(-c2nn(CCOc3ccccc3)c(=O)c3ccccc23)c2ccccc2n1CC(=O)O [Example 223, 2-(2-methyl-3-(4-oxo-3-(2-phenoxyethyl)-3,4-dihydrophthalazin-1-yl)-1H-indol-1-yl)acetic acid]
14 | 93 | Cc1c(-c2nn(CCc3ccc(F)cc3)c(=O)c3ccccc23)c2ccccc2n1CC(=O)O [Example 224, 2-(3-(3-(4-fluorophenethyl)-4-oxo-3,4-dihydrophthalazin-1-yl)-2-methyl-1H-indol-1-yl)acetic acid]
15 | 27 | Cc1c(-c2nn(CCc3ccccc3)c(=O)c3ccccc23)c2ccccc2n1CC(=O)O [Example 225, 2-(2-methyl-3-(4-oxo-3-phenethyl-3,4-dihydrophthalazin-1-yl)-1H-indol-1-yl)acetic acid]
16 | 2 | Cc1c(-c2nn(CCc3ccccc3)c(=O)c3ccccc23)c2cc(F)ccc2n1CC(=O)O [Example 226, 2-(5-fluoro-2-methyl-3-(4-oxo-3-phenethyl-3,4-dihydrophthalazin-1-yl)-1H-indol-1-yl)acetic acid]

Row | IC50 [nM] | SMILES
17 | 3 | Cc1c(-c2nn(CCc3ccc(F)cc3)c(=O)c3ccccc23)c2cc(F)ccc2n1CC(=O)O [Example 227, 2-(5-fluoro-3-(3-(4-fluorophenethyl)-4-oxo-3,4-dihydrophthalazin-1-yl)-2-methyl-1H-indol-1-yl)acetic acid]
18 | 147 | Cc1c(-c2ccc(=O)n(CCc3ccccc3)n2)c2ccccc2n1CC(=O)O [Example 228, 2-(2-methyl-3-(6-oxo-1-phenethyl-1,6-dihydropyridazin-3-yl)-1H-indol-1-yl)acetic acid]
19 | 136 | Cc1c(-c2ccc(=O)n(CCc3ccc(F)cc3)n2)c2ccccc2n1CC(=O)O [Example 229, 2-(3-(1-(4-fluorophenethyl)-6-oxo-1,6-dihydropyridazin-3-yl)-2-methyl-1H-indol-1-yl)acetic acid]
20 | 232 | Cc1c(-c2ccc(=O)n(CC(C)(C)Oc3ccccc3)n2)c2cc(F)ccc2n1CC(=O)O [Example 230, 2-(5-fluoro-2-methyl-3-(1-(2-methyl-2-phenoxypropyl)-6-oxo-1,6-dihydropyridazin-3-yl)-1H-indol-1-yl)acetic acid]
21 | 401 | Cc1c(-c2ccc(=O)n(Cc3ccccc3)n2)c2cc(F)cc(Cl)c2n1CC(=O)O [Example 231, 2-(3-(1-benzyl-6-oxo-1,6-dihydropyridazin-3-yl)-7-chloro-5-fluoro-2-methyl-1H-indol-1-yl)acetic acid]
22 | 1080 | Cc1c(-c2ccc(=O)n(C(C)C)n2)c2cc(F)cc(Cl)c2n1CC(=O)O [Example 232, 2-(7-chloro-5-fluoro-3-(1-isopropyl-6-oxo-1,6-dihydropyridazin-3-yl)-2-methyl-1H-indol-1-yl)acetic acid]
23 | 147 | Cc1c(-c2ccc(=O)n(Cc3ccccc3)n2)c2cc(F)cc(F)c2n1CC(=O)O [Example 233, 2-(3-(1-benzyl-6-oxo-1,6-dihydropyridazin-3-yl)-5,7-difluoro-2-methyl-1H-indol-1-yl)acetic acid]
24 | 1000 | Cc1c(-c2ccc(=O)n(Cc3ccccc3)n2)c2cc(Cl)cc(Cl)c2n1CC(=O)O [Example 234, 2-(3-(1-benzyl-6-oxo-1,6-dihydropyridazin-3-yl)-5,7-dichloro-2-methyl-1H-indol-1-yl)acetic acid]
25 | 1580 | Cc1c(-c2ccc(=O)n(C(C)C)n2)c2cc(Cl)cc(Cl)c2n1CC(=O)O [Example 235, 2-(5,7-dichloro-3-(1-isopropyl-6-oxo-1,6-dihydropyridazin-3-yl)-2-methyl-1H-indol-1-yl)acetic acid]
26 | > 1000 | Cc1c(-c2ccc(=O)n(Cc3ccccc3)n2)c2cc(F)cc(S(C)(=O)=O)c2n1CC(=O)O [Example 236, 2-(3-(1-benzyl-6-oxo-1,6-dihydropyridazin-3-yl)-5-fluoro-2-methyl-7-(methyl-sulfonyl)-1H-indol-1-yl)acetic acid]
27 | > 1000 | Cc1c(-c2nn(Cc3ccccc3)c(=O)c3ccccc23)c2cc(F)cc(S(C)(=O)=O)c2n1CC(=O)O [Example 237, 2-(3-(3-benzyl-4-oxo-3,4-dihydrophthalazin-1-yl)-5-fluoro-2-methyl-7-(methyl-sulfonyl)-1H-indol-1-yl)acetic acid]
28 | 13 | Cc1c(Cc2ccc(=O)n(Cc3ccc(C(C)(C)O)cc3)n2)c2cc(F)ccc2n1CC(=O)O [Example 238, 2-(5-fluoro-3-((1-(4-(2-hydroxypropan-2-yl)benzyl)-6-oxo-1,6-dihydropyridazin-3-yl)methyl)-2-methyl-1H-indol-1-yl)acetic acid]
29 | 7 | Cc1c(Cc2ccc(=O)n(Cc3ccc(C(O)(C(F)(F)F)C(F)(F)F)cc3)n2)c2cc(F)ccc2n1CC(=O)O [Example 239, 2-(5-fluoro-3-((1-(4-(1,1,1,3,3,3-hexafluoro-2-hydroxypropan-2-yl)benzyl)-6-oxo-1,6-dihydropyridazin-3-yl)methyl)-2-methyl-1H-indol-1-yl)acetic acid]
30 | 4 | Cc1c(Cc2ccc(=O)n(Cc3cccc(C(C)(C)O)c3)n2)c2cc(F)ccc2n1CC(=O)O [Example 240, 2-(5-fluoro-3-((1-(3-(2-hydroxypropan-2-yl)benzyl)-6-oxo-1,6-dihydropyridazin-3-yl)methyl)-2-methyl-1H-indol-1-yl)acetic acid]
31 | 28 | Cc1c(Cc2ccc(=O)n(Cc3ccc(F)cc3F)n2)c2cc(F)cc(F)c2n1CC(=O)O [Example 242, 2-(3-((1-(2,4-difluorobenzyl)-6-oxo-1,6-dihydropyridazin-3-yl)methyl)-5,7-difluoro-2-methyl-1H-indol-1-yl)acetic acid]
32 | 33 | Cc1c(-c2nn(Cc3ccccc3)c(=O)c3ccccc23)c2cc(F)cc(Cl)c2n1CC(=O)O [Example 243, 2-(3-(3-benzyl-4-oxo-3,4-dihydrophthalazin-1-yl)-7-chloro-5-fluoro-2-methyl-1H-indol-1-yl)acetic acid]
